In patent US20140227731A1, “DRUG FOR ANALYSIS OF WATER TRANSPORT FUNCTION OF MEMBRANE PROTEIN IN BIOLOGICAL TISSUE” (TAIYO NIPPON SANSO CORPORATION, priority 2013, published 2014):

Tested on: radish
Experiment: Permeation of red food coloring water into round radish slices
Protocol: Using radish that was cut into round slices with thicknesses of 6-10 cm, the bottom faces of the round slices were immersed in red food coloring water for 1-16 hours, As the red food coloring, Red No. 102 (chemical name: 7-hydroxy-8-(4-sulfonaphthylazo)-1,3-naphthylenedisulfonic acid=trisodium salt=1½ hydrate) was used.

O.O.O.O=S(=O)([O-])c1cc(S(=O)(=O)[O-])c2c(N=Nc3ccc(S(=O)(=O)[O-])c4ccccc34)c(O)ccc2c1.O=S(=O)([O-])c1cc(S(=O)(=O)[O-])c2c(N=Nc3ccc(S(=O)(=O)[O-])c4ccccc34)c(O)ccc2c1.[Na+].[Na+].[Na+].[Na+].[Na+].[Na+] [Red No. 102, 7-hydroxy-8-(4-sulfonaphthylazo)-1,3-naphthylenedisulfonic acid=trisodium salt=1½ hydrate]
permeation of red food coloring into radish tissue (bottom face immersed, one hour elapsed): had soaked into the connective tissue at the periphery of the round slices from the bottom face
sites permeated by red food coloring water (immersed for 16 hours): not found anywhere other than the connective tissue
